Reference: US20070054899A1 (priority 2003, published 2007)
Like-named read-outs stand apart in the source and are kept apart here.

Experiments:
[1] = system: uterine hypertrophy induced by androstenedione; assay: Activity in vivo: inhibition of uterine hypertrophy induced by androstenedione; set-up: species or system rat (Sprague-Dawley); details: Rattus norvegicus, 96 h, immature female rats, androstenedione 30 mg/kg for 4 days, read-out: % inhibition to doses (μg/Kg); for inhibition in vivo at 0.001 mg/kg: dose 1 μg/Kg; for inhibition in vivo at 0.01 mg/kg: dose 10 μg/Kg; for inhibition in vivo at 0.1 mg/kg: dose 100 μg/Kg; for inhibition in vivo at 1 mg/kg: dose 1000 μg/Kg
Description: The activity in vivo of aromatase inhibition by compounds of formula (I) according to the invention has been tested according to the model established by Bharnagar et al. (1990).
In general, immature female rats of the Sprague-Dawley line of a weight ranging from 40 to 50 g have been treated with a dose of androstenedione at 30 mg/kg for 4 days, in the absence or in the presence of doses of various compounds of formula (I).
Four hours after administration of an aromatase inhibitor, the rats were sacrificed. Their uteruses were removed, cleared of adhering fat and conjunctive tissue, next the uteruses were weighed (wet weight). The dry weight of the uteruses was determined the following day after a step of drying for one night at 80° C.

[2] = target: T1, aromatase (microsomes from the human placenta) (Homo sapiens, UniProt P11511); assay: Aromatase inhibition in vitro, tritiated water method, human placenta microsomes; assay type: biochemical
T1 construct: using microsomes from the human placenta as source of the enzyme; from tissue; host or cells: human placenta microsomes
T1 sequence (P11511 1-503): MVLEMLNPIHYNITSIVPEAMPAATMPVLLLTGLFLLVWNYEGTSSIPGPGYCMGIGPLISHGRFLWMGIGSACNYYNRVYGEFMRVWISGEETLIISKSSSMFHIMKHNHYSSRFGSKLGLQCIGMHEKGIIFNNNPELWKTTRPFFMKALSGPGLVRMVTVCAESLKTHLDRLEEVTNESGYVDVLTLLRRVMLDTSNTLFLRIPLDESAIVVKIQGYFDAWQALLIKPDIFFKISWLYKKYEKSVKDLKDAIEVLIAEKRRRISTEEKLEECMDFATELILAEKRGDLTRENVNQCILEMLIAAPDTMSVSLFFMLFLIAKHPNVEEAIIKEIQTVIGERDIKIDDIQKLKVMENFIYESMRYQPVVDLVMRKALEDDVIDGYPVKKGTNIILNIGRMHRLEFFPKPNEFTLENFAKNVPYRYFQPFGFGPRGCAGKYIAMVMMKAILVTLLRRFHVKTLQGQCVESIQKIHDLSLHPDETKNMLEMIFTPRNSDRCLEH

[3] = target: aromatase (e) (UniProt O46512); assay type: biochemical; details: value marked (e); read-out: Activity In vitro IC50(nM), (e)
[4] = value without (h)/(e) mark, read-out: Activity In vitro IC50
[5] = value marked (h), read-out: Activity In vitro IC50(nM), (h)

Sequence of aromatase (e) (O46512 whole entry): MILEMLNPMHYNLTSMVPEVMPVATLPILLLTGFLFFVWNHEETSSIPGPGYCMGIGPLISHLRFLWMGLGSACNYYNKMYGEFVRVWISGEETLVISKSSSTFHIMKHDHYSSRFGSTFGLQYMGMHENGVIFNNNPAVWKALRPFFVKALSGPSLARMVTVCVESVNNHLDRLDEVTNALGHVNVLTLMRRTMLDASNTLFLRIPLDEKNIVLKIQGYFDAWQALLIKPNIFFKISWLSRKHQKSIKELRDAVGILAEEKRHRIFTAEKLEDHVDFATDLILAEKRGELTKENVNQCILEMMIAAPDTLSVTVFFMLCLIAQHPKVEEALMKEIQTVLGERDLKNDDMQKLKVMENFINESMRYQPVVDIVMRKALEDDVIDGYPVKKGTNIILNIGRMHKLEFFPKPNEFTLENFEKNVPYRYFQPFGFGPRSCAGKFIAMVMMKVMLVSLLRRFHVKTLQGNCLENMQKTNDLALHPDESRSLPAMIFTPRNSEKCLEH

In the case of Cn1c(=O)sc2ccc(C(c3ccc(C#N)cc3)n3cncn3)cc21 (centres unmarked) [PCH163, 4-[(3-Methyl-2-oxo-2,3-dihydro-1,3-benzothiazol-5-yl)(1H-1,2,4-triazol-1-yl)methyl]benzonitrile], the melting point is reported as 122 to 125 °C, the inhibition in vivo at 0.001 mg/kg [1] is reported as 57% and the inhibition in vivo at 0.01 mg/kg [1] is reported as 83%. For the same molecule, the inhibition in vivo at 0.1 mg/kg [1] was 95% and the IC50 [2, 4] was 5.78 nM.
In the case of CCn1c(=O)sc2ccc(C(c3ccc(C#N)cc3)n3cncn3)cc21 (centres unmarked) [PCH246, 4-[(3-Ethyl-2-oxo-2,3-dihydro-1,3-benzothiazol-5-yl)(1H-1,2,4-triazol-1-yl)methyl]benzonitrile], the melting point is reported as 125 to 127 °C, the inhibition in vivo at 0.001 mg/kg [1] is reported as 22% and the inhibition in vivo at 0.01 mg/kg [1] is reported as 45%. It also gave an inhibition in vivo at 0.1 mg/kg [1] of 91% and an IC50 [2, 4] of 5.51 nM.
Work on CCn1c(=O)[se]c2cc(C(c3ccc(C#N)cc3)n3cncn3)ccc21 (centres unmarked) [PC11303, 4-[(3-Ethyl-2-oxo-2,3-dihydro-1,3-benzoselenazol-6-yl)(1H-1,2,4-triazol-1-yl)methyl]benzonitrile] yielded a melting point of 95 to 98 °C, an inhibition in vivo at 0.001 mg/kg [1] of 38% and an inhibition in vivo at 0.01 mg/kg [1] of 60%. For the same molecule, the inhibition in vivo at 0.1 mg/kg [1] was 71% and the IC50 [2, 4] was 3.99 nM.
For N#Cc1ccc(C(c2ccc3[nH]c(=O)oc3c2)n2ccnc2)cc1 (centres unmarked) [PCH113, 6-[(4-Cyanophenyl)(1H-imidazol-1-yl)methyl]-1,3-benzoxazol-2(3H)-one], the inhibition in vivo at 0.01 mg/kg [1] was 19%, the inhibition in vivo at 0.1 mg/kg [1] was 50% and the inhibition in vivo at 1 mg/kg [1] was 94%. The IC50 [3] was 14.6 nM and the IC50 [2, 5] was 13.2 nM.
Cn1c(=O)[se]c2cc(C(c3ccc(C#N)cc3)n3cncn3)ccc21 (centres unmarked) [PCH300, 4-[(3-Methyl-2-oxo-2,3-dihydro-1,3-benzoselenazol-6-yl)(1H-1,2,4-triazol-1-yl)methyl]benzonitrile] showed a melting point of 154 to 158 °C, an inhibition in vivo at 0.001 mg/kg [1] of 49% and an inhibition in vivo at 0.01 mg/kg [1] of 86%. For the same molecule, the inhibition in vivo at 0.1 mg/kg [1] was 91% and the IC50 [2, 4] was 4.64 nM.
With CCn1c(=O)[se]c2cc(C(c3ccc([N+](=O)[O-])cc3)n3cncn3)ccc21 (centres unmarked) [PCH305, 3-Ethyl-6-[(4-nitrophenyl)(1H-1,2,4-triazol-1-yl)methyl]-1,3-benzoselenazol-2(3H)-one] the melting point was 79 to 82 °C and the IC50 [2, 4] was 3.7 nM.
In the case of O=c1[nH]c2cc(C(c3ccccc3)n3ccnc3)ccc2o1 (centres unmarked) [PCH124, 5-[1H-Imidazol-1-yl(phenyl)methyl]-1,3-benzoxazol-2(3H)-one], the inhibition in vivo at 0.01 mg/kg [1] is reported as 34%, the inhibition in vivo at 0.1 mg/kg [1] is reported as 71% and the inhibition in vivo at 1 mg/kg [1] is reported as 92%. It also gave an IC50 [3] of 14.1 nM and an IC50 [2, 5] of 14.9 nM.
Cn1c(=O)oc2cc(C(c3cccc(C#N)c3)n3ccnc3)ccc21 (centres unmarked) [PC122] showed an inhibition in vivo at 0.01 mg/kg [1] of 39%, an inhibition in vivo at 0.1 mg/kg [1] of 58% and an inhibition in vivo at 1 mg/kg [1] of 92%. It also gave an IC50 [3] of 23.2 nM and an IC50 [2, 5] of 18.6 nM.
For Cn1c(=O)[se]c2cc(C(c3ccc([N+](=O)[O-])cc3)n3cncn3)ccc21 (centres unmarked) [PCH304, 3-Methyl-6-[(4-nitrophenyl)(1H-1,2,4-triazol-1-yl)methyl]-1,3-benzoselenazol-2(3H)-one], the melting point was 190 to 195 °C and the IC50 [2, 4] was 3.64 nM.
N#Cc1ccc(C(c2ccc3[nH]c(=O)[se]c3c2)n2cncn2)cc1 (centres unmarked) [PCH302, 4-[(2-oxo-2,3-dihydro-1,3-benzoselenazol-6-yl)(1H-1,2,4-triazol-1-yl)methyl]benzonitrile] gave a melting point of 223 to 226 °C, an inhibition in vivo at 0.001 mg/kg [1] of 45% and an inhibition in vivo at 0.01 mg/kg [1] of 20%. For the same molecule, the inhibition in vivo at 0.1 mg/kg [1] was 63% and the IC50 [2, 4] was 6.53 nM.
